Test results taken from patent publication US20140230091A1, “MODIFIED PLANTS WITH INCREASED OIL CONTENT” (BROOKHAVEN SCIENCE ASSOCIATES, LLC, priority 2011, published 2014).
Marks after values point to notes of the source that are not given here.

System: ACCase
Assay: ACCase enzyme assay on crude cell extracts
Assay type: biochemical, Brassica napus
Method: All chemicals were obtained from Sigma and radioisotopes from American Radiolabeled Chemicals. ACCase activity was measured as the acetyl-CoA dependent incorporation of ^14C—NaHC03 into acid and stable products. Crude cell extracts were prepared by grinding fresh cells in 3 volumes (w/v) of 50 mM Tris-Cl, pH 7.5, 100 mM KCl, 5 mM MgCl2, 1 mM DTT, 0.1% TritonX-100, 10% glycerol, and plant protease inhibitor cocktail (Sigma). Homogenate was gently mixed on ice for 10 min and then centrifuged for 5 min at 3000 g. Desalting of extracts was done with PD-10 columns (GE Life Sciences). […] Reactions were initiated by the addition of 5 μlL cell extract and were stopped by the addition of 15 μL 12 N HCL. The contents were dried completely at 55° C. and the solids were resuspended in 30 μL water and counted by liquid scintillation spectroscopy. Minus acetyl-CoA controls were always included. Assays went for 30 min, except when measuring the effects of metabolites (10 min). Metabolites were added to the reaction immediately after cell extract to preserve labile thioester bonds. FFA stock solutions were made in ethanol and acyl-CoAs were suspended in water.

Substance: Tween-80
- ACCase activity (crude extracts of cells fed 10 mM Tween-80 for three hours, mean of four repeats ± SD): 1.73 ± 0.10^a nmol min^−1 mg^−1
- effect on ACCase activity (included in assay of crude cell extract, FFA up to 10 μM): no effect
